Measured values: ChEMBL document CHEMBL1926647, “Discovery of 4-aminomethylphenylacetic acids as γ-secretase modulators via a scaffold design approach” (Bioorg Med Chem Lett, 2011)
Blank lines part the entries; values can stand above or below the compound they belong to. The source made the active and inactive calls. The rule behind the calls is not given here.

Tests used:
[1] = Modulation of gamma-secretase expressed in CHO cells co-expressing APP V717F mutant assessed as reduction in amyloid beta42 production after 17 hrs by ELISA; assay type: cell-based
[2] = Drug uptake in wild type CF1 mouse plasma at 30 mg/kg, po after 4 hrs; assay type: ADME, organism-based; parameters: dose 30 mg/kg, route oral
Mus musculus [3] = experiment: Inhibition of gamma-secretase-mediated cleavage of APP in wild type CF1 mouse brain assessed as inhibition of amyloid beta42 production at 30 mg/kg, po after 4 hrs by ELISA; assay type: functional; settings: for inhibition in vivo at 30 mg/kg: Mus musculus, CF1, Brain, po, 4 h
[4] = Drug uptake in wild type CF1 mouse brain at 30 mg/kg, po after 4 hrs; assay type: ADME, organism-based; parameters: dose 30 mg/kg, route oral; settings: read-out: Drug uptake
Mus musculus [5] = experiment: Inhibition of gamma-secretase-mediated cleavage of APP in wild type CF1 mouse brain assessed as inhibition of amyloid beta42 production at 50 mg/kg, po after 4 hrs by ELISA; assay type: functional
[6] = Oral bioavailability in wild type CF1 mouse; assay type: ADME, organism-based; settings: in vivo
[7] = Clearance in wild type CF1 mouse; assay type: ADME, organism-based; settings: in vivo
[8] = Drug uptake in wild type CF1 mouse brain at 50 mg/kg, po after 4 hrs; assay type: ADME, organism-based; parameters: dose 50 mg/kg, route oral; settings: read-out: Drug uptake
[9] = Drug uptake in wild type CF1 mouse plasma at 50 mg/kg, po after 4 hrs; assay type: ADME, organism-based; parameters: dose 50 mg/kg, route oral
[10] = Half life in wild type CF1 mouse; assay type: ADME, organism-based; settings: in vivo
Brain = experiment: Drug uptake in rat brain at 30 mg/kg, po after 4 hrs; settings: in vivo
Mus musculus [11] = experiment: Inhibition of gamma-secretase-mediated cleavage of APP in wild type CF1 mouse brain assessed as inhibition of amyloid beta42 production at 12.5 mg/kg, po after 4 hrs by ELISA; assay type: functional
Rattus norvegicus [12] = experiment: Inhibition of gamma-secretase-mediated cleavage of APP in rat brain assessed as inhibition of amyloid beta42 production at 30 mg/kg, po after 4 hrs by ELISA
MC-IXC/H4 = experiment: Inhibition of Notch intracellular domain in human MC-IXC/H4 cells assessed as reduction in HES1 protein expression at 10 uM after 24 hrs Western blotting; assay type: cell-based
Caco-2 = experiment: Ratio of permeability from basolateral to apical side to apical to basolateral side in human Caco2 cells; assay type: ADME, cell-based
Rattus norvegicus [13] = organism: Rattus norvegicus; experiment: Liver blood flow in rat; assay type: ADME, organism-based
Cytochrome P450 1A2 = biological target: T1, Cytochrome P450 1A2 (Homo sapiens, UniProt P05177); experiment: Inhibition of human CYP1A2; assay type: ADME
T1 sequence (P05177 whole entry): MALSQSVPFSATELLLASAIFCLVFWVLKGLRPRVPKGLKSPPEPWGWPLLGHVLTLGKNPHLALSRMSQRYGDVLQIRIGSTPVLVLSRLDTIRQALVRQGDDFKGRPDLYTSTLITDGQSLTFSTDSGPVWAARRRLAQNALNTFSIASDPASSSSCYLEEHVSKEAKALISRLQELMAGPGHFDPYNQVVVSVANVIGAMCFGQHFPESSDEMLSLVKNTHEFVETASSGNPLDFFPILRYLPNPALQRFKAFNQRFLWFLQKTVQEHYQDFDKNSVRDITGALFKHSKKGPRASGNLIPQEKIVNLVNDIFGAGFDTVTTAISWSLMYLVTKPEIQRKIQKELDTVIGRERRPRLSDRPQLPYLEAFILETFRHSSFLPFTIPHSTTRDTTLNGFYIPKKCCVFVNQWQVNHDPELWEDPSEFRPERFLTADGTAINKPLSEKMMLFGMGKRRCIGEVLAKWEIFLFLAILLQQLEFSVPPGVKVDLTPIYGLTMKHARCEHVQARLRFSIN

Canis familiaris = experiment: Dose normalised AUC in dog at 0.5 mg/kg; assay type: ADME, organism-based, Canis lupus familiaris; parameters: dose 0.5 mg/kg; settings: in vivo
[14] = Half life in dog at 0.5 mg/kg; assay type: ADME, organism-based, Canis lupus familiaris; parameters: dose 0.5 mg/kg; settings: in vivo
[15] = Apparent permeability from apical to basolateral side in human Caco2 cells; assay type: ADME, cell-based; settings: caco-2
[16] = Clearance in F344 rat at 2 mg/kg; assay type: ADME, organism-based; parameters: dose 2 mg/kg; settings: in vivo
Cytochrome P450 3A4 = Cytochrome P450 3A4 (Homo sapiens, UniProt P08684); experiment: Inhibition of human CYP3A4; assay type: ADME
[17] = Cmax in dog at 0.5 mg/kg; assay type: ADME, organism-based, Canis lupus familiaris; parameters: dose 0.5 mg/kg; settings: in vivo
[18] = Ratio of drug level in brain to plasma in wild type CF1 mouse at 30 mg/kg, po after 4 hrs; assay type: ADME, organism-based; parameters: dose 30 mg/kg, route oral; settings: read-out: BPR
Cytochrome P450 2D6 = Cytochrome P450 2D6 (Homo sapiens, UniProt P10635); experiment: Inhibition of human CYP2D6; assay type: ADME
Rattus norvegicus [19] = experiment: Dose normalised AUC in F344 rat at 2 mg/kg; assay type: ADME, organism-based; parameters: dose 2 mg/kg; settings: in vivo
[20] = Drug uptake in wild type CF1 mouse brain at 12.5 mg/kg, po after 4 hrs; assay type: ADME, organism-based; parameters: dose 12.5 mg/kg, route oral; settings: read-out: Drug uptake
[21] = Clearance in dog at 0.5 mg/kg; assay type: ADME, organism-based, Canis lupus familiaris; parameters: dose 0.5 mg/kg; settings: in vivo
[22] = biological target: Voltage-gated inwardly rectifying potassium channel KCNH2 (Homo sapiens, UniProt Q12809); experiment: Inhibition of human ERG at 10 uM
Cytochrome P450 2C9 = Cytochrome P450 2C9 (Homo sapiens, UniProt P11712); experiment: Inhibition of human CYP2C9; assay type: ADME
Homo sapiens = organism: Homo sapiens; experiment: Liver blood flow in human; assay type: ADME, organism-based
[23] = Half life in F344 rat at 2 mg/kg; assay type: ADME, organism-based; parameters: dose 2 mg/kg; settings: in vivo
Cytochrome P450 2C19 = Cytochrome P450 2C19 (Homo sapiens, UniProt P33261); experiment: Inhibition of human CYP2C19; assay type: ADME
Chain of Cytochrome P450 2C19 (P33261 whole entry): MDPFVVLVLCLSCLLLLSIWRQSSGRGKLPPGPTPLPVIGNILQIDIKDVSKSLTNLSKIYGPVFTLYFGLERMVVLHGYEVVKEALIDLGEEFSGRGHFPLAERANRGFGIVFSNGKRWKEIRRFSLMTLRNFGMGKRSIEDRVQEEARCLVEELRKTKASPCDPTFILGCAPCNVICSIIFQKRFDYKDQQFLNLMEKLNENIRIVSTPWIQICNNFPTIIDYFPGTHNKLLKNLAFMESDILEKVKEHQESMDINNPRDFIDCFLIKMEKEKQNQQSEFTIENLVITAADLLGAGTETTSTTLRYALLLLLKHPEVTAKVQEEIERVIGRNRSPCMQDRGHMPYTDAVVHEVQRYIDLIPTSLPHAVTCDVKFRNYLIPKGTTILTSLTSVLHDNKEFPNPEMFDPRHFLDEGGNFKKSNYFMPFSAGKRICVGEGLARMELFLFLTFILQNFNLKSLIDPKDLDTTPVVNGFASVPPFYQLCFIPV

Chain of Voltage-gated inwardly rectifying potassium channel KCNH2 (Q12809 whole entry): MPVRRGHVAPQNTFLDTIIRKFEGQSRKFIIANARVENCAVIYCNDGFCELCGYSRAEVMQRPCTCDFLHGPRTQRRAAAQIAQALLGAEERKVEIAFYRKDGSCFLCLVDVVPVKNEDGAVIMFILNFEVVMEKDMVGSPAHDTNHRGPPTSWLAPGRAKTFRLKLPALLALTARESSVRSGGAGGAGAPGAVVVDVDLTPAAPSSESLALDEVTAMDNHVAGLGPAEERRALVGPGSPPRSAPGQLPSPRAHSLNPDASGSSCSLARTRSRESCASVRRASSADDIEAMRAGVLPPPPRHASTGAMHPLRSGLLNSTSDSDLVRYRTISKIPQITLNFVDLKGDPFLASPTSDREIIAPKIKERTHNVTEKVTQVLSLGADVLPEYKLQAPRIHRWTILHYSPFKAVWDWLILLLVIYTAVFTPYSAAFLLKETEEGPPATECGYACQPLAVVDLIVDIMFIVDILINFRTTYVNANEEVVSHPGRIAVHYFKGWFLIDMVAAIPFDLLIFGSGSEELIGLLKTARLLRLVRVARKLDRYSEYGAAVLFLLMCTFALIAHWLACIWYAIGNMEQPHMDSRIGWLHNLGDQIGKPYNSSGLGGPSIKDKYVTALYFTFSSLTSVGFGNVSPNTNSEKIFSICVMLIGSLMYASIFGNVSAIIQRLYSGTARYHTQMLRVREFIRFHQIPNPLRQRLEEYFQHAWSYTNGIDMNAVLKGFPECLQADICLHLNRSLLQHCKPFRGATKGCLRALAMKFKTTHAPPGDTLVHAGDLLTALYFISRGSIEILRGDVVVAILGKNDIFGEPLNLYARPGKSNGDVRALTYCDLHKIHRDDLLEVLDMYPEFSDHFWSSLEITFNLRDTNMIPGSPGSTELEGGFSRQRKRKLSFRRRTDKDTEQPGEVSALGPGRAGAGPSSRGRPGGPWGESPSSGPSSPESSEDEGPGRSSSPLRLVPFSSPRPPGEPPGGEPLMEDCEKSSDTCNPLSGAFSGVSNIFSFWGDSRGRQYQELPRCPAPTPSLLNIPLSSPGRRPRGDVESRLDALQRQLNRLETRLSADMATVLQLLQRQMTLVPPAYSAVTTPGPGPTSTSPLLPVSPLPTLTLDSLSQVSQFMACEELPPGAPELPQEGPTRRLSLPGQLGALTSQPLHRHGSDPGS
Chain of Cytochrome P450 2D6 (P10635 whole entry): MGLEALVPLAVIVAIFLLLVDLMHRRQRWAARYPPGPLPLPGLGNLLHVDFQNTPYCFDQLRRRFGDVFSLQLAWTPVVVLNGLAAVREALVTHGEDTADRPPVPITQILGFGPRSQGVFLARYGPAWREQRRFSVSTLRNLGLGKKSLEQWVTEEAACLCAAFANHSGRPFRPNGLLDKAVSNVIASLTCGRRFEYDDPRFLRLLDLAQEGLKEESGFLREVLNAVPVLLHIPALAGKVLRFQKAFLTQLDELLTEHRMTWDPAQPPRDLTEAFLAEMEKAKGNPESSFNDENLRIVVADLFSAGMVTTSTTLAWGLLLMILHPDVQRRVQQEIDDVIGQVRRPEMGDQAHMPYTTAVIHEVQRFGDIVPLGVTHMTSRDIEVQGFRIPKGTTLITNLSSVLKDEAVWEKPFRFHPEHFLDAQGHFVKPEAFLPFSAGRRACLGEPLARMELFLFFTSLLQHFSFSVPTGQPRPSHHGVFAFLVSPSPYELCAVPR
Chain of Cytochrome P450 2C9 (P11712 whole entry): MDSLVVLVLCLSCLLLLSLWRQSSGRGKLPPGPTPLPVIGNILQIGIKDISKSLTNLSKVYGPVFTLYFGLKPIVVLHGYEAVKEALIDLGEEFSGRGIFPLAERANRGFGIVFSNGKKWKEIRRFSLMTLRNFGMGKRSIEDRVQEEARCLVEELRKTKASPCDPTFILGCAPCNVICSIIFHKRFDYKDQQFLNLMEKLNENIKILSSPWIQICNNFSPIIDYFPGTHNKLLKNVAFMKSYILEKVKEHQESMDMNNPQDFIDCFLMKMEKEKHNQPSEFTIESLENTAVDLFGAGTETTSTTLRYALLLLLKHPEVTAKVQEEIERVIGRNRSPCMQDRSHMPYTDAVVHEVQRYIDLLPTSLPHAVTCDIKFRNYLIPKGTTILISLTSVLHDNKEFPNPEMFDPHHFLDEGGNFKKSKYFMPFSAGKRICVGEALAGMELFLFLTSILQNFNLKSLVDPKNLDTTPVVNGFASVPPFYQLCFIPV
Chain of Cytochrome P450 3A4 (P08684 whole entry): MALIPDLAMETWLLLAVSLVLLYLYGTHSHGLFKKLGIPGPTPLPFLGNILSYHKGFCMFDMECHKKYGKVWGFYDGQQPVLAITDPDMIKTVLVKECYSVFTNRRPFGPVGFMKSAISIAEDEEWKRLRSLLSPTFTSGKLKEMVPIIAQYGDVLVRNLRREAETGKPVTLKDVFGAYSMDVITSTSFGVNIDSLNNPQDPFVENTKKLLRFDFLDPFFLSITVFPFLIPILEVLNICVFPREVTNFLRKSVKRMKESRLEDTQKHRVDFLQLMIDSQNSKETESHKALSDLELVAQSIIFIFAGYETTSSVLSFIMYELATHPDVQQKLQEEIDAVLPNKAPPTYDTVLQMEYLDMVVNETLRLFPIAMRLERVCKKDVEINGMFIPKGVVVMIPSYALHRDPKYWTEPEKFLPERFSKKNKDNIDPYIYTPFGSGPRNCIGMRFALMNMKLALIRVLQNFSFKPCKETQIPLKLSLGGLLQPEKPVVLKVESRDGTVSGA

SMILES: CC(C)CCC(c1ccc(CC(=O)O)cc1-c1ccc(C(F)(F)F)cc1)N1CCC(F)CC1 (stereo not drawn)
EC50 [1]: 3300 nM

SMILES: CC(C)CCC(c1ccc(CC(=O)O)cc1-c1ccc(C(F)(F)F)cc1)N1CCC(C(F)(F)F)CC1 (stereo not drawn)
inhibition in vivo at 50 mg/kg (Mus musculus [5]): 35% | bioavailability [6]: 100% | EC50 [1]: 620 nM | clearance [7]: 3.2 mL/min/kg | concentration at 4 h [8]: 17 µM | concentration at 4 h [9]: 32 µM | half-life [10]: 2.9 h

SMILES: CC(C)CCC(c1ccc(CC(=O)O)cc1-c1ccc(C(F)(F)F)cc1)N1CC[C@@H](F)C1 (stereo partly drawn)
EC50 [1]: > 10000 nM

SMILES: CC(C)CCN(Cc1ccc(C(=O)O)cc1-c1ccc(C(F)(F)F)cc1)c1ccc(C(F)(F)F)cc1
EC50 [1]: 5400 nM

SMILES: O=C(O)Cc1ccc(C(CC2CCCCC2)N2CCC(C(F)(F)F)CC2)c(-c2ccc(C(F)(F)F)cc2)c1 (stereo not drawn)
concentration at 4 h [2]: 25 µM | EC50 [1]: 540 nM | inhibition in vivo at 30 mg/kg (Mus musculus [3]): 30% | concentration at 4 h [4]: 18 µM

SMILES: O=C(O)Cc1ccc(C(CCC(F)(F)F)N2CCC(C(F)(F)F)CC2)c(-c2ccc(C(F)(F)F)cc2)c1 (stereo not drawn)
EC50 [1]: 1400 nM

SMILES: CC(C)(C)CC(c1ccc(CC(=O)O)cc1-c1ccc(C(F)(F)F)cc1)N1CCC(C(F)(F)F)CC1 (single isomer, unassigned; enantiomer 2) [listing 1 of 2 here]
concentration (Brain): 26 µM | inhibition (INH) (Mus musculus [11]; 12.5 mg/kg): 30% | inhibition (INH) (Rattus norvegicus [12]): 30%

SMILES: CC(C)(C)CC(c1ccc(CC(=O)O)cc1-c1ccc(C(F)(F)F)cc1)N1CCC(C(F)(F)F)CC1 (single isomer, unassigned; enantiomer 2) [listing 2 of 2 here]
inhibition (MC-IXC/H4): inactive

SMILES: CC(C)CCC(c1ccc(CC(=O)O)cc1-c1ccc(C(F)(F)F)cc1)N1CC[C@H](F)C1 (stereo partly drawn)
EC50 [1]: 5900 nM

SMILES: CC(C)(C)CC(c1ccc(CC(=O)O)cc1-c1ccc(C(F)(F)F)cc1)N1CCC(C(F)(F)F)CC1 (racemic)
Ratio (Caco-2): 1.9 | QH (Rattus norvegicus [13]): 31% | concentration at 4 h [2]: 37 µM | IC50 (Cytochrome P450 1A2): > 10000 nM | AUC/dose (Canis familiaris): 28712 ng·kg·h/mL/mg | half-life [14]: 10.1 h | Papp A→B [15]: 16 ×10⁻⁶ cm/s | inhibition in vivo at 12.5 mg/kg (Mus musculus [11]; Mus musculus, CF1, Brain, po, 4 h): 25% | clearance [16]: 2.5 mL/min/kg | IC50 (Cytochrome P450 3A4): > 10000 nM | Cmax [17]: 1120 ng/mL | Kp at 4 h [18]: 1 | EC50 [1]: 630 nM | IC50 (Cytochrome P450 2D6): > 10000 nM | AUC/dose (Rattus norvegicus [19]): 5495 ng·kg·h/mL/mg | concentration at 4 h [20]: 9 µM | clearance [21]: 0.6 mL/min/kg | inhibition (INH) [22]: Not Active | inhibition (INH) (Mus musculus [3]; 30 mg/kg): 50% | IC50 (Cytochrome P450 2C9): > 10000 nM | QH (Homo sapiens): 39% | half-life [23]: 9.6 h | IC50 (Cytochrome P450 2C19): > 10000 nM | concentration at 4 h [4]: 32 µM

The remaining compounds from weak to strong by EC50 [1], led by results:

EC50 [1]: 520 nM
SMILES: CC(C)CCC(c1ccc(CC(=O)O)cc1-c1ccc(C(F)(F)F)cc1)N1CCCC(C(F)(F)F)C1 (mixture of isomers)

concentration at 4 h [2]: 21 µM | EC50 [1]: 460 nM | concentration at 4 h [4]: 13 µM
SMILES: CC(C)CCC(c1ccc(C(C)(C)C(=O)O)cc1-c1ccc(C(F)(F)F)cc1)N1CCC(C(F)(F)F)CC1 (stereo not drawn)
inhibition in vivo at 30 mg/kg (Mus musculus [3]): 20%

EC50 [1]: 450 nM
SMILES: CC(C)CCC(NC1CCC(C(C)(C)C)CC1)c1ccc(CC(=O)O)cc1-c1ccc(C(F)(F)F)cc1 (stereo not drawn)

concentration at 4 h [2]: 22 µM | EC50 [1]: 340 nM | concentration at 4 h [4]: 13 µM
SMILES: CC(C)CCC(c1ccc(C(C)C(=O)O)cc1-c1ccc(C(F)(F)F)cc1)N1CCC(C(F)(F)F)CC1 (stereo not drawn)
inhibition in vivo at 30 mg/kg (Mus musculus [3]): 35%

concentration at 4 h [2]: 14 µM | EC50 [1]: 210 nM | concentration at 4 h [4]: 4 µM
SMILES: CC(C)CCC(c1ccc(C(CC(C)C)C(=O)O)cc1-c1ccc(C(F)(F)F)cc1)N1CCC(C(F)(F)F)CC1 (stereo not drawn)
inhibition in vivo at 30 mg/kg (Mus musculus [3]): 21%
